From US6375979B2 (Somerset Pharmaceuticals, Inc., priority 1995, dated 2002)
Where “and” joins values, the source holds several entries; their conditions need not be identical. Identical values can stand only once. Like-named read-outs stand apart in the source and are kept apart here.

What was measured:
MAO-A = target: T1, MAO-A (Cavia porcellus, UniProt H0UVA2); assay: MAO-A inhibition in guinea pig hippocampal homogenates in vitro; type: biochemical; parameters: by human platelets and/or guinea pig hippocampal homogenates; from tissue; host or cells: guinea pig hippocampus homogenate; settings: for reduction in potency compared to selegiline (value in parentheses): MAO-A IC50, guinea pig hippocampal cortex
T1 sequence (H0UVA2 1-461): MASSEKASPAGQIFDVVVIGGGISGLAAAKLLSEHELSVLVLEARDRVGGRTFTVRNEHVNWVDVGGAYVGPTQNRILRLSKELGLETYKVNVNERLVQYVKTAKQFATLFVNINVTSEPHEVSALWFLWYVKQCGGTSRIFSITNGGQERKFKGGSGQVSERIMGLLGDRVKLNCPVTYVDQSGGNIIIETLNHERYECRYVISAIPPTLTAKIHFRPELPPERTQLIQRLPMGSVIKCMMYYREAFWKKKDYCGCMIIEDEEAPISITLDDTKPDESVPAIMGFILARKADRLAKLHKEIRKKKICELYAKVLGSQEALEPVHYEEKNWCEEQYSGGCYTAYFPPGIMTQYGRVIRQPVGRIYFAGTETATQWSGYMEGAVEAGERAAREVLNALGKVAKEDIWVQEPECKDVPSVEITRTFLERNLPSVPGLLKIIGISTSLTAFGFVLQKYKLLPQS
From the text: Human platelet MAO is comprised exclusively of the type-B isoform of the enzyme. […] The present study also examined the two enantiomers of DMS for inhibitory activity with respect to the MAO-A and MAO-B in guinea pig hippocampal tissue. Guinea pig brain tissue is an excellent animal model for studying brain dopamine metabolism, the enzyme kinetics of the multiple forms of MAO and the inhibitory properties of novel agents that interact with these enzymes. The multiple forms of MAO in this animal species show similar kinetic properties to those found in human brain tissue. Finally, the test agents were administered to guinea pigs and the extent to which they might act as inhibitors of brain MAO in vivo was assessed.
In vitro: The test system utilized the in vitro conversion of specific substrates of MAO-A (^14C-serotonin) and MAO-B (^14C-phenylethylamine) by human platelets and/or guinea pig hippocampal homogenates. […] A percent inhibition was calculated from these values.

interleukin-2 production = assay: Concanavalin A-induced interleukin-2 production by spleen cells of treated old rats; type: in vivo, rat; settings: for IL-2 % control / IL-2 U/ml mean: ip daily 60 days
Method: The present experiments utilized a rat model to examine the ability of R(−)DMS and S(+)DMS to restore immunological function. Rats were divided into the following experimental groups:
(§1) Rats were administered saline or test agent ip, daily for 60 days. They were then maintained for an additional “wash out” period of 10 days during which time no treatment was given. At the end of this time, animals were sacrificed and their spleens were removed. The spleen cells were then assayed for a variety of factors which are indicative of immune system function. Specifically, standard tests were employed to determine the following:
2) in vitro concanavalin A-induced production of interleukin-2;

[1] = test system: cultured rat mesencephalic cells; assay: Medium change (glutamate receptor dependent) model of cell death: [3H]-dopamine uptake; settings: for more axonal growth and terminal axonal survival compared to untreated control cells / 3H-Dopamine uptake as a percentage + SEM: 10 μM; for more axonal growth and terminal axonal survival compared to untreated control cells / 3H-Dopamine uptake as a percentage + SEM / Dopamine uptake, % control, Mean / Dopamine uptake, % control, individual cultures / Dopamine uptake, counts/min, Mean / Dopamine uptake, counts/min, individual cultures: medium change model; for 3H-Dopamine uptake as a percentage + SEM: control = 100; for neuron protection by measurement of dopamine uptake (FIG. 15): glutamate receptor dependent model
Method: Preparations are then added to 10 ml Ecoscint (National Diagnostics) and counted in a scintillation spectrometer.
In these experiments, cells were plated and allowed to stabilize for several days.

[2] = target: T2, dopamine re-uptake system (Rattus norvegicus, UniProt P23977); assay: Inhibition of dopamine re-uptake in rat neostriatal synaptosome preparation; type: biochemical
T2 construct: (synaptosome preparation) was obtained form fresh rat neostriatal brain tissue; from tissue; host or cells: rat neostriatum, synaptosome preparation
T2 sequence (P23977 whole entry): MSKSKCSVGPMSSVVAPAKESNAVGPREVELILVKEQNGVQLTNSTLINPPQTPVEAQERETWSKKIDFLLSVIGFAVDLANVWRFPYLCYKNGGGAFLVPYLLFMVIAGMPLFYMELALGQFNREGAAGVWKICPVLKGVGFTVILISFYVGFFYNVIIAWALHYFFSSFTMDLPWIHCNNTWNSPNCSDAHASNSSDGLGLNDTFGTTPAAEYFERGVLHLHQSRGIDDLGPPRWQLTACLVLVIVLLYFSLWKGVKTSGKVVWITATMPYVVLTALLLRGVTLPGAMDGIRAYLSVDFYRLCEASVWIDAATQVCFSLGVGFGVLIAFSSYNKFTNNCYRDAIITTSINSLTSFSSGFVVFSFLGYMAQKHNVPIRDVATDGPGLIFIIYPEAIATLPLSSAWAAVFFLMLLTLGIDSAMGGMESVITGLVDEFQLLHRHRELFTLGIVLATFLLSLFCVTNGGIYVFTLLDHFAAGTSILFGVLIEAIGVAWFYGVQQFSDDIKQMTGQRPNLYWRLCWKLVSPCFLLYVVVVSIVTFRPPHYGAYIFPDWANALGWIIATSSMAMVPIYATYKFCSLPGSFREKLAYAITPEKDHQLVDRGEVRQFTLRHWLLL
Method: An in vitro nerve terminal preparation (synaptosome preparation) was prepared using fresh rat neostriatal tissue.
FIG. 19: Determination of IC50 Values for Inhibition of Dopamine Re-Uptake.
An in vitro nerve-terminal preparation (synaptosome preparation) was obtained form fresh rat neostriatal brain tissue. Transport by dopamine nerve-terminals was estimated by measuring the uptake of tritiated dopamine.

γ-interferon production = γ-interferon production by concanavalin A-stimulated spleen cells of treated old rats; type: in vivo, rat; settings: for IFN-γ % control / IFN-γ U/ml mean: old rats, ip daily 60 days, 1.0 mg/kg (for DMS enantiomers)
Method: Rats were divided into the following experimental groups:
as §1
1) in vitro production of γ-interferon by concanavalin A-stimulated spleen cells;

wobbler mouse = assay: Wobbler mouse model of motor neuron disease; type: in vivo; settings: 0.1 mg/kg daily intra-peritoneal for 30 days; range in parentheses
Method: The ability of the enantiomers of DMS to prevent neurological deterioration was examined by administering the agents to the wobbler mouse, an animal model of motor neuron diseases, particularly amyotrophic lateral sclerosis (ALS).
A 0.1 mg/kg dose of R(−)DMS, S(+)DMS or placebo was administered to wobbler mice by daily intra-peritoneal injection for a period of 30 days in a randomized, double-blind study. At the end of this time mice were examined for grip strength, running time, resting locomotive activity and graded for semi-quantitative paw posture abnormalities, and semi-quantitative walking abnormalities. The investigators who prepared and administered the test drugs to the animals were different than those who analyzed behavioral changes.
Assays and grading were performed essentially as described in Mitsumoto et al., Ann. Neurol. 36:142-148 (1994). Grip strength of the front paws of a mouse was determined by allowing the animal to grasp a wire with both paws. […] The reading on the dynamometer at the point of release is taken as a measure of grip strength.
Running time is defined as the shortest time necessary to traverse a specified distance, e.g. 2.5 feet and the best time of several trials is recorded. […]
Locomotive activity is determined by transferring animals to an examination area in which the floor is covered with a square grid. […]

rat spleens = assay: Histological immunofluorescence of spleen innervation in old rats; type: in vivo; settings: ip daily 60 days
Method: as §1
Histological immunofluorescence studies show a dramatic loss of innervation in rat spleens with age.

[3] = 1.0 mg/kg (for DMS enantiomers)

C#CCN[C@@H](C)Cc1ccccc1 (single isomer, unassigned) [S(+)DMS, ent-desmethylselegiline]
IC50 (MAO-A): 100 µM
inhibition at 1 µM (MAO-A; 1 μM, guinea pig hippocampus, read-out: MAO-A % Inhibition x = SEM): 3.3 ± 1.5%
inhibition at 3 µM (MAO-A; 3 μM, guinea pig hippocampus, read-out: MAO-A % Inhibition x = SEM): 4.3 ± 1%
inhibition at 10 µM (MAO-A; 10 μM, guinea pig hippocampus, read-out: MAO-A % Inhibition x = SEM): 10.5 ± 1.47%
inhibition at 100 µM (MAO-A; 100 μM, guinea pig hippocampus, read-out: MAO-A % Inhibition x = SEM): 48.4 ± 1.8%
inhibition at 1000 µM (MAO-A; 1 mM, guinea pig hippocampus, read-out: MAO-A % Inhibition x = SEM): 92.7 ± 2.5%
inhibition at 10000 µM (MAO-A; 10 mM, guinea pig hippocampus, read-out: MAO-A % Inhibition x = SEM): 99.6 ± 0.35%
reduction in potency compared to selegiline (value in parentheses) (MAO-A): 40
IL-2 production after treatment (interleukin-2 production): not enhanced
IL-2 % control (interleukin-2 production; [3]): 291%
IL-2 U/ml mean (interleukin-2 production; [3]): 57.12 U/ml
more axonal growth and terminal axonal survival compared to untreated control cells [1]: 134%
3H-Dopamine uptake as a percentage + SEM [1]: 234 ± 38.36%
times more potent than either selegiline or R(−)DMS at inhibiting dopamine re-uptake [2]: 4-5 times
3H-Dopamine uptake, % Reduction x ± SEM ([2]; 1 μM): 24.1 ± 11.7%
3H-Dopamine uptake, % Reduction x ± SEM ([2]; 10 μM): 47.0 ± 3.1%
3H-Dopamine uptake, % Reduction x ± SEM ([2]; 100 μM): 15.3 ± 7.7%
γ-interferon levels in old rats after administration (γ-interferon production; most dramatic increases at 1.0 mg/kg body weight): restoration of γ-interferon levels
IFN-γ % control (γ-interferon production): 261%
IFN-γ U/ml mean (γ-interferon production): 918 U/ml
Mean Grip Strength (gm) (wobbler mouse): 14 (7-20) gm
innervation in the spleens, histological examination (rat spleens): did not show any effect

desmethylselegiline [R(−)DMS]
MAO-A % Inhibition x = SEM (MAO-A; 300 nM, guinea pig hippocampus): 4.8 ± 2.1%
MAO-A % Inhibition x = SEM (MAO-A; 1 μM, guinea pig hippocampus): 4.2 ± 1.5%
MAO-A % Inhibition x = SEM (MAO-A; 3 μM, guinea pig hippocampus): 10.5 ± 2.0%
MAO-A % Inhibition x = SEM (MAO-A; 10 μM, guinea pig hippocampus): 19.0 ± 1.3%
MAO-A % Inhibition x = SEM (MAO-A; 100 μM, guinea pig hippocampus): 64.2 ± 1.5%
MAO-A % Inhibition x = SEM (MAO-A; 1 mM, guinea pig hippocampus): 96.5 ± 1.2%
reduction in potency compared to selegiline (value in parentheses) (MAO-A): 20
IC50 (MAO-A; read-out: IC50 for MAO-A in Guinea Pig Hippocampal Cortex): 50 µM
IL-2 production after treatment (interleukin-2 production): not enhanced
IL-2 % control (interleukin-2 production; [3]): 223%
IL-2 U/ml mean (interleukin-2 production; [3]): 43.7 U/ml
IL-2 U/ml mean (interleukin-2 production; […] (for R(−)DMS by group order)): 64.54 U/ml
IL-2 U/ml mean (interleukin-2 production; dose not printed in row, by group order […]): 55.17 U/ml
Dopamine uptake, % control, Mean ([1]; 0.5 μM): 141.9%
Dopamine uptake, % control, individual cultures ([1]; 0.5 μM): 142.3% and 152.4% and 142.6% and 130.4%
Dopamine uptake, counts/min, Mean ([1]; 0.5 μM): 29800.75 counts/min
Dopamine uptake, counts/min, individual cultures ([1]; 0.5 μM): 29885 counts/min and 32002 counts/min and 29934 counts/min and 27382 counts/min
neuron protection by measurement of dopamine uptake (FIG. 15) ([1]; 5 μM): neuron protection
Dopamine uptake, % control, Mean ([1]; 5.0 μM): 153.7%
Dopamine uptake, % control, individual cultures ([1]; 5.0 μM): 155.2% and 142.1% and 173.2% and 144.5%
Dopamine uptake, counts/min, Mean ([1]; 5.0 μM): 32280 counts/min
Dopamine uptake, counts/min, individual cultures ([1]; 5.0 μM): 32577 counts/min and 29831 counts/min and 36370 counts/min and 30342 counts/min
more axonal growth and terminal axonal survival compared to untreated control cells [1]: 40%
3H-Dopamine uptake as a percentage + SEM [1]: 140.82 ± 26.20%
neuron protection by measurement of dopamine uptake (FIG. 15) ([1]; 50 μM): neuron protection
Dopamine uptake, % control, Mean ([1]; 50 μM): 185.5%
Dopamine uptake, % control, individual cultures ([1]; 50 μM): 178.3% and 186.7% and 186.3% and 190.6%
Dopamine uptake, counts/min, Mean ([1]; 50 μM): 38944.75 counts/min
Dopamine uptake, counts/min, individual cultures ([1]; 50 μM): 37440 counts/min and 39200 counts/min and 39126 counts/min and 40013 counts/min
3H-Dopamine uptake, % Reduction x ± SEM ([2]; 1 μM): 10.7 ± 2.8%
3H-Dopamine uptake, % Reduction x ± SEM ([2]; 10 μM): 20.1 ± 3.1%
3H-Dopamine uptake, % Reduction x ± SEM ([2]; 100 μM): 11.5 ± 1.0%
3H-Dopamine uptake, % Reduction x ± SEM ([2]; 100 μM (last row of each agent)): 51.3 ± 2.6%
IFN-γ % control (γ-interferon production): 777%
IFN-γ U/ml mean (γ-interferon production): 2728 U/ml
Mean Grip Strength (gm) (wobbler mouse): 20 (0-63) gm
innervation in the spleens, histological examination (rat spleens): significant increase in innervation
